What was measured:
[1] = molecular target: T1, TGF-beta receptor type-1 (Homo sapiens, UniProt P36897); experiment: Inhibition of TGFbeta R1 induced transcriptional activation of p3TP-Lux in mink Mv1Lu lung cells; assay type: functional, cell-based, Mustela
T1 sequence (P36897 whole entry): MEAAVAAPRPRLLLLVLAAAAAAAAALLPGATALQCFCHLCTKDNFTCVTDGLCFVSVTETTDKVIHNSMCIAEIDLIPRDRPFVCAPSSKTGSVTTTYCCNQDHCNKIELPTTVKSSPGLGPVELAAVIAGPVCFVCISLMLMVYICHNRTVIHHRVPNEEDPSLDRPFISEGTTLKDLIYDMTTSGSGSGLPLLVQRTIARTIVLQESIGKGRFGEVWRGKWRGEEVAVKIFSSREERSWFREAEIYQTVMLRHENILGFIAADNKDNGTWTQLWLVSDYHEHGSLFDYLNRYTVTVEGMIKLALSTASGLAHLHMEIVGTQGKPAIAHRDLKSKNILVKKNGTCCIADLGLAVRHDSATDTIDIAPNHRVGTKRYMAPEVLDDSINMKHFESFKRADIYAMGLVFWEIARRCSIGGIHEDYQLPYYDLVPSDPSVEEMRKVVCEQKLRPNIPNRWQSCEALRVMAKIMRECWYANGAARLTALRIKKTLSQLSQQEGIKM

[2] = Inhibitory activity against TGF-beta-stimulated proliferation in NIH3T3 cells; assay type: functional, cell-based; conditions: Mus musculus
[3] = molecular target: T1, TGF-beta receptor type-1; experiment: Inhibition of recombinant human TGFbeta R1 expressed in Sf9 cells
[4] = molecular target: Mitogen-activated protein kinase kinase kinase 20 (Homo sapiens, UniProt Q9NYL2); experiment: Inhibition of MLK7
[5] = molecular target: TGF-beta receptor type-2 (Homo sapiens, UniProt P37173); experiment: Inhibition of recombinant human TGFbeta R2 expressed in Sf9 cells
[6] = molecular target: Cytochrome P450 2D6 (Homo sapiens, UniProt P10635); experiment: Inhibition of cytochrome P450 2D6; assay type: ADME
Sequence of Cytochrome P450 2D6 (P10635 whole entry): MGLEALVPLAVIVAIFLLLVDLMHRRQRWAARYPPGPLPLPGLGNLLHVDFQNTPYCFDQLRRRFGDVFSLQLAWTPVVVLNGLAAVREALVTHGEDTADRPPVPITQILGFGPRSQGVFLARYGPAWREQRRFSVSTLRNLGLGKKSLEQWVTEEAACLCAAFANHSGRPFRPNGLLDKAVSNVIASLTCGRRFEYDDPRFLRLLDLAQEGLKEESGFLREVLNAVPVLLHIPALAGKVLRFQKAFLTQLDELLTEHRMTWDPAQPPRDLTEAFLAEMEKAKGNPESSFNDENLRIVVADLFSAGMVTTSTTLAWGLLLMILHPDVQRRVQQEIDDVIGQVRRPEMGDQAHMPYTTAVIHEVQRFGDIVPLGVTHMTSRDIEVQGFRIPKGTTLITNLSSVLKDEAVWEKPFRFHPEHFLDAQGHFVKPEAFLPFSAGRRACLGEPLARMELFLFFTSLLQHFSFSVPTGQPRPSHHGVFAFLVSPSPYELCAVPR

Sequence of TGF-beta receptor type-2 (P37173 whole entry): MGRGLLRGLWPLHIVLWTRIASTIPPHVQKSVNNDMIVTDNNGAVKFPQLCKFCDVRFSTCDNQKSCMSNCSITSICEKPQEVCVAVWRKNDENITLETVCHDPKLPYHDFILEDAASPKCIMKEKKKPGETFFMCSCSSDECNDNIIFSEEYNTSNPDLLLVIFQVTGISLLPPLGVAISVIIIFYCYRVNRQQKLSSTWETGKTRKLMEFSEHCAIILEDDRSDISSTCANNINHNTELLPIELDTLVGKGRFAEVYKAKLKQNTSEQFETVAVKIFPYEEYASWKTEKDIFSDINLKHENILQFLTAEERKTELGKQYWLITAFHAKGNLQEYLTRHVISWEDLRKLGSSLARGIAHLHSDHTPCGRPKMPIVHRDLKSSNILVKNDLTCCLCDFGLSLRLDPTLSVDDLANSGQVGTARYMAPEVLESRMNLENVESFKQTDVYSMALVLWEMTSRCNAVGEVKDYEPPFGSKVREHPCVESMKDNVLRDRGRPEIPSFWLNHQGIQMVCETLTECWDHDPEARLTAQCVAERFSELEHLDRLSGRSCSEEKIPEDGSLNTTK
Sequence of Mitogen-activated protein kinase kinase kinase 20 (Q9NYL2 whole entry): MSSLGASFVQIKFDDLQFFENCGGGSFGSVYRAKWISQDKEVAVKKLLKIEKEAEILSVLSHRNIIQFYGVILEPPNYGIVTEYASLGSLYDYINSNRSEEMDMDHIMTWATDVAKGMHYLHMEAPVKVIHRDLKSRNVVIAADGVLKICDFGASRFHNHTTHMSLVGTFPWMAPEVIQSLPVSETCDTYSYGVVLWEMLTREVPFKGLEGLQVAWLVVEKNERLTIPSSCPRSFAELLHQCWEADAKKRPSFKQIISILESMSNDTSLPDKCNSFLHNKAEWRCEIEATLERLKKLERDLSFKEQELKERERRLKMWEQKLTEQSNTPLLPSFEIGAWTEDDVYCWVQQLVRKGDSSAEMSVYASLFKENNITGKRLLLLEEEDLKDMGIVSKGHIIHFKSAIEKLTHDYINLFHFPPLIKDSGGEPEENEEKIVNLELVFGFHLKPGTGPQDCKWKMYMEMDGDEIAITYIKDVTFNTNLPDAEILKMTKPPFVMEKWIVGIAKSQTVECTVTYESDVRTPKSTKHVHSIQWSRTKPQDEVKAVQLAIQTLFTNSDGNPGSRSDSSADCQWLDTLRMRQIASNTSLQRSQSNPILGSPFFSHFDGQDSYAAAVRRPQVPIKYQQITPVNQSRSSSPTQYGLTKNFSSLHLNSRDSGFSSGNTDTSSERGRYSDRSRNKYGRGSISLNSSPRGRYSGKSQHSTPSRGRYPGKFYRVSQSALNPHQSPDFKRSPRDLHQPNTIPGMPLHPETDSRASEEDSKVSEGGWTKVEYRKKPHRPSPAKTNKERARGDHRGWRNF

SMILES	IC50 [1]	IC50 [2]	IC50 [3]	IC50 [4]	IC50 [5]	IC50 [6]
Cc1cccc(-c2nn3c(c2-c2ccc4ncn(C)c4c2)CCC3)n1	29 nM	96 nM	22 nM	2340 nM	668 nM	–
Cn1cnc2ccc(-c3c(-c4ccccn4)nn4c3CCC4)cc21	8 nM	32 nM	75 nM	1310 nM	395 nM	–
c1ccc(-c2nn3c(c2-c2ccc4c(c2)ncn4CCCOC2CCCCO2)CCC3)nc1 (stereo not drawn)	5890 nM	4700 nM	6580 nM	> 20000 nM	> 20000 nM	–
c1ccc(-c2nn3c(c2-c2ccc4ncn(CCCN5CCCC5)c4c2)CCC3)nc1	226 nM	854 nM	246 nM	4880 nM	10800 nM	–
OCCCn1cnc2ccc(-c3c(-c4ccccn4)nn4c3CCC4)cc21	79 nM	371 nM	79 nM	708 nM	352 nM	–
CCN(CC)CCCn1cnc2ccc(-c3c(-c4cccc(C)n4)nn4c3CCC4)cc21	100 nM	274 nM	122 nM	> 20000 nM	> 20000 nM	–
c1ccc(-c2nn3c(c2-c2ccc4[nH]ccc4c2)CCC3)nc1	–	–	> 20000 nM	> 20000 nM	> 20000 nM	–
c1ccc(-c2n[nH]cc2-c2ccnc3ccccc23)nc1	–	81 nM	–	1400 nM	400 nM	–
Cc1cccc(-c2nn3c(c2-c2ccc4ncn(CCCO)c4c2)CCC3)n1	78 nM	371 nM	41 nM	2810 nM	690 nM	–
Cc1cccc(-c2nn3c(c2-c2ccc4ncn(CCCN5CCCCC5)c4c2)CCC3)n1	51 nM	150 nM	155 nM	> 20000 nM	> 20000 nM	–
Cc1cccc(-c2nn3c(c2-c2ccc4nc[nH]c4c2)CCC3)n1	15 nM	42 nM	47 nM	15900 nM	1300 nM	27000 nM
Cc1cccc(-c2nn3c(c2-c2ccc4c(ccn4C)c2)CCC3)n1	–	–	4100 nM	> 20000 nM	> 20000 nM	–
Cc1cccc(-c2nn3c(c2-c2ccc4ncn(CCCN(C)C)c4c2)CCC3)n1	53 nM	139 nM	85 nM	> 20000 nM	> 20000 nM	–
Cn1ccc2cc(-c3c(-c4ccccn4)nn4c3CCC4)ccc21	–	–	12200 nM	16600 nM	> 20000 nM	–
Cc1cccc(-c2nn3c(c2-c2ccc4ncn(CCCN5CCCC5)c4c2)CCC3)n1	117 nM	249 nM	74 nM	> 20000 nM	> 20000 nM	–
Cc1cccc(-c2nn3c(c2-c2ccc4c(c2)ncn4CCCOC2CCCCO2)CCC3)n1 (stereo not drawn)	2430 nM	–	1830 nM	> 20000 nM	14500 nM	–
CN(C)CCCn1cnc2ccc(-c3c(-c4ccccn4)nn4c3CCC4)cc21	104 nM	1000 nM	398 nM	15900 nM	> 20000 nM	–
c1ccc(-c2nn3c(c2-c2ccc4[nH]cnc4c2)CCC3)nc1	–	–	–	–	8730 nM	–
Cc1cccc(-c2nn3c(c2-c2ccc4ncn(CCCN5CCOCC5)c4c2)CCC3)n1	186 nM	277 nM	69 nM	8480 nM	19800 nM	–
Cn1cnc2cc(-c3c(-c4ccccn4)nn4c3CCC4)ccc21	1370 nM	1620 nM	4740 nM	> 20000 nM	19600 nM	–

Source: ChEMBL document CHEMBL1138200, “Dihydropyrrolopyrazole transforming growth factor-beta type I receptor kinase domain inhibitors: a novel benzimidazole series with selectivity versus transforming growth factor-beta type II receptor kinase and mixed lineage kinase-7” (J Med Chem, 2006)
